Measured values reported in patent publication US20180371076A1, “MATERNAL TH17 CELLS AND PSYCHIATRIC DISORDERS” (New York University, priority 2017, published 2018).

Legend:
Format in all cases: in vivo, mouse
[1] = tested on: IFN-β; experiment: IFN-β ELISA of maternal serum; settings: poly(I:C) at E12.5, 3 h, vs PBS
Protocol: (§1) Cell preparation, Flow cytometry, ELISA Embryos at each implantation site were dissected in ice-cold HBSS containing Ca2+ and Mg2+ (Gibco). Myometrium was first peeled off of the decidua and embryos were discarded. Dissected decidual and placental tissues were then minced and enzymatically dissociated in HBSS containing 0.28 Wunsch units (WU)/mL Liberase (Roche) and 30 μg/mL DNase I (Roche) for 30 min at 37° C. with intermittent mixing. Digested tissues were washed in PBS containing 5 mM EDTA and 5% fetal bovine serum and then incubated again in the same buffer for 15 min at 37° C. prior to filtration through a cell strainer. […] Intracellular cytokine staining was performed according to the manufacturer's protocol (Cytofix/Cytoperm buffer set from BD with Pacific Blue-conjugated CD4, FITC or PerCP-Cy5.5-conjugated CD8, APC4 Cy7-conjugated TCR-β, PE-Cy7-conjugated anti-IL-17a, PE-conjugated anti-IFN-γ, PECy7-conjugated anti-CD25 and PE-conjugated Foxp3 (eBioscience). LSR II (BD Biosciences) and FlowJo software (Tree Star) were used for flow cytometry and analysis. Dead cells were excluded using the Live/Dead fixable aqua dead cell stain kit (Invitrogen). For ELISA with sera and placenta/decidua extract, IL-6 (Ebioscience), IL-17a, TNF-α, IL-1β, IFN-β (Biolgened), and IL-10 (BD) were measured according to the manufacturer's protocol.

[2] = tested on: IL-6; experiment: IL-6 ELISA of maternal serum; settings: poly(I:C) 20 mg/kg i.p. at E12.5, 3 h, vs PBS
Protocol: Cell preparation, Flow cytometry, ELISA. Embryos at each implantation site were dissected in ice-cold HBSS containing Ca^2+ and Mg^2+. Myometrium was first peeled off of the decidua and embryos were discarded. Dissected decidual and placental tissues were then minced and enzymatically dissociated in HBSS containing 0.28 Wunsch units (WU)/mL Liberase (Roche) and 30 μg/ml DNase I (Roche) for 30 min at 37° C. with intermittent mixing. Digested tissues were washed in PBS containing 5 mM EDTA and 5% fetal bovine serum and then incubated again in the same buffer for 15 min at 37° C. prior to filtration through a cell strainer. After separation on a discontinuous 40% & 80% Percoll gradient, the mononuclear cell fraction was treated with ACK lysis buffer (Lonza). Mononuclear cells (1×10^6 cells/mL) were stimulated with phorbol 12-myristate 13-acetate (PMA, 50 ng/mL; Sigma), ionomycin (500 ng/mL; Sigma) in T cell media: RPMI 1640 (Invitrogen) supplemented with 10% (v/v) heat-inactivated FBS (Hyclone), 50 U penicillin-streptomycin (Invitrogen), 2 mM glutamine, and 50 μM β-mercaptoethanol. Cell culture supernatant was used for ELISA analyses. For flow cytometry, cells were incubated for 5 h with PMA, ionomycin and GolgiStop (BD). […] For ELISA with sera and placenta/decidua extract, IL-6 (Ebioscience), IL-17a (Biolgened), and IL-10 (BD) were measured according to the manufacturer's protocol. […]

[3] = tested on: TNF-α; experiment: TNF-α ELISA of maternal serum; settings: poly(I:C) at E12.5, 3 h, vs PBS
Protocol: as §1

poly(I:C)
strong induction: serum IFN-β [1] | serum IL-6 [2] | serum TNF-α [3]
